Results: publication PMC3558989 (Journal of Chemotherapy (Florence, Italy), 2013)

Assays:
MSSA 29213 = test: Effect of serum binding on MIC
S. aureus Smith = details: single oral dose of 1 mg/kg, mouse; cited from earlier work
[1] = system: 20 strains of staphylococci, including 10 MRSA; test: MIC with and without pulmonary surfactant, all strains; assay type: cell-based, S. aureus; details: for effect of pulmonary surfactant on MICs: in words
MRSA 1659 = test: Effect of serum on rate of kill; assay type: cell-based, S. aureus; details: for reduction in the viable count: 10 hours
[2] = system: serum proteins of mouse, rat, dog and humans; test: Serum protein-binding assays, summary over methods and species; assay type: in vitro ADME, human
in vitro = details: mouse
[3] = system: MSSA 29213, MRSA A6250596 (fluoroquinolone-resistant) and MRSA A7080336; test: Further combination study of AFN-1252; assay type: cell-based, S. aureus; details: three strains

## Cc1c(CN(C)C(=O)/C=C/c2cnc3c(c2)CCC(=O)N3)oc2ccccc12 [AFN-1252]
MSSA 29213; 4% human serum albumin in CAMHB
  increase in MIC: 8 fold
MSSA 29213; 50% human serum vs serum-free CAMHB
  increase in MIC: 8 fold
MSSA 29213; 50% serum
  binding from MIC shift: approximately 90%
S. aureus Smith
  protection from lethal peritoneal infection: 100%
[1]
  effect of pulmonary surfactant on MICs: not affected
MRSA 1659; 75% human serum, 8× MIC
  effect on viable count: bacteriostatic activity
MRSA 1659; 75% human serum, 64× MIC
  reduction in the viable count: 2 log10
MRSA 1659; 75% mouse serum, 64× MIC
  effect on viable count: bacteriostasis
MRSA 1659; absence of serum, 4× MIC
  reduction in the viable count: 1–2 log10
MRSA 1659; absence of serum, 64× MIC
  reduction in the viable count: 4 log
[2]; all serum types, all concentrations
  serum binding, equilibrium dialysis: exceeded 95%
[2]; mouse, rat, dog and humans, overall
  binding to serum proteins: ~95%
In vitro
  fraction unbound: 0.06 to 0.08

## CO/N=C(\C(=O)N[C@@H]1C(=O)N2C(C(=O)O)=C(COC(N)=O)CS[C@H]12)c1ccco1 [Cefuroxime]
[3]
  interaction with AFN-1252: did not detect any synergy or antagonism

## CCCCCCCCCC(=O)N[C@@H](Cc1c[nH]c2ccccc12)C(=O)N[C@H](CC(N)=O)C(=O)N[C@@H](CC(=O)O)C(=O)N[C@@H]1C(=O)NCC(=O)N[C@@H](CCCN)C(=O)N[C@@H](CC(=O)O)C(=O)N[C@H](C)C(=O)N[C@@H](CC(=O)O)C(=O)NCC(=O)N[C@H](CO)C(=O)N[C@@H]([C@H](C)CC(=O)O)C(=O)N[C@@H](CC(=O)c2ccccc2N)C(=O)O[C@@H]1C [Daptomycin]
[1]; presence of surfactant at 0·8 mg/ml
  elevation of MICs: at least 32 fold

## C[C@H]1COc2c(N3CCN(C)CC3)c(F)cc3c(=O)c(C(=O)O)cn1c23 [Levofloxacin]
[3]
  interaction with AFN-1252: did not detect any synergy or antagonism

## CN[C@H](CC(C)C)C(=O)N[C@H]1C(=O)N[C@@H](CC(N)=O)C(=O)N[C@H]2C(=O)N[C@H]3C(=O)N[C@H](C(=O)N[C@H](C(=O)O)c4cc(O)cc(O)c4-c4cc3ccc4O)[C@H](O)c3ccc(c(Cl)c3)Oc3cc2cc(c3O[C@@H]2O[C@H](CO)[C@@H](O)[C@H](O)[C@H]2O[C@H]2C[C@](C)(N)[C@H](O)[C@H](C)O2)Oc2ccc(cc2Cl)[C@H]1O [Vancomycin]
[1]
  effect of pulmonary surfactant on MICs: generally unaffected

## CC[C@H]1OC(=O)[C@H](C)[C@@H](O[C@H]2C[C@@](C)(OC)[C@@H](O)[C@H](C)O2)[C@H](C)[C@@H](O[C@@H]2O[C@H](C)C[C@H](N(C)C)[C@H]2O)[C@](C)(O)C[C@@H](C)CN(C)[C@H](C)[C@@H](O)[C@]1(C)O [azithromycin]
[3]
  interaction with AFN-1252: did not detect any synergy or antagonism

## CO/N=C(\C(=O)N[C@@H]1C(=O)N2C(C(=O)O)=C(CSc3nc(=O)c(=O)[nH]n3C)CS[C@H]12)c1csc(N)n1 [ceftriaxone]
[3]
  interaction with AFN-1252: did not detect any synergy or antagonism

## COc1c(N2CCNC(C)C2)c(F)cc2c(=O)c(C(=O)O)cn(C3CC3)c12 (stereo not shown) [gatifloxacin]
[3]
  interaction with AFN-1252: did not detect any synergy or antagonism

## C[C@@H](O)[C@H]1C(=O)N2C(C(=O)O)=C(S[C@@H]3CN[C@H](C(=O)N(C)C)C3)[C@H](C)[C@H]12 [meropenem]
[3]
  interaction with AFN-1252: did not detect any synergy or antagonism

## penicillin
[3]
  interaction with AFN-1252: did not detect any synergy or antagonism
